# Test results published in patent publication US10729130B2, “Nematicidal compositions and methods of using them” (Eden Research plc, priority 2004, dated 2020).
# Test: Loading of terpenes (L-carvone) into SAF Mannan in minimal water (free terpene, flow)
# Type: physicochemical
# Design: key to Free Terpene: +: “free terpene” refers to the visible presence of terpene in the centrifuged reaction mixture; −: The absence of free terpene indicates complete absorption of the terpene by the particles; key to Flow: Sl = slight
# Conditions: emulsion 4.64 g; for Flow: flow in inverted tubes over 15 minutes
# Method: The following protocol was carried out to evaluate the possibility that terpene loading and encapsulation into YP could be carried out at a very high Yeast Particles (YP) solids level to allow for direct extrusion of the loaded formulation into a fluidised bed drier. The minimal amount of water to completely hydrate the SAF Mannan™ particles was determined to be 3.53 g water per g solids. This defines the hydrodynamic volume (HV) or water absorptive capacity of the particles. At this level of water the hydrated particles have a consistency of a stiff dough which is thixotropic, i.e. shear thinning like mayonnaise. Addition of water up to 40% above the HV results in a thick flowable paste. The standard reaction that has been used in the above examples was carried out at 3×HV water.
# . Controls were the standard loading system which uses 3×HV water, particles only and terpene only reactions. Following overnight incubation samples of the mixtures were evaluated microscopically for free terpene and evidence of terpene uptake into the particles and for material flow characteristics by assessing flow in inverted tubes over 15 minutes. In addition, the presence of free oil was assessed by hydrating the reaction mixture with 5×HV, vortexing to obtain a complete dispersion of particles and centrifugation to sediment the particle encapsulated terpene. FIGS. 7 to 12 show the loading results of the following tubes: • FIG. 7—Tube 3 • FIG. 8—Tube 5 • FIG. 9—Tube 6 • FIG. 10—Tube 8 • FIG. 11—Tube 10 • FIG. 12—Tube 11
substance,measurement,setting,value
L-carvone,Free Terpene,"Tube 1: terpene only control, no SAF, water 4.5 g",+
same,Free Terpene,"Tube 3: SAF 1 g, water 4.5 g (standard loading, 3×HV)",−
same,Free Terpene,"Tube 4: SAF 1 g, water —",−
same,Free Terpene,"Tube 5: SAF 1 g, water 0.17 g",−
same,Free Terpene,"Tube 6: SAF 1 g, water 0.35 g",−
same,Free Terpene,"Tube 7: SAF 1 g, water 0.52 g",−
same,Free Terpene,"Tube 8: SAF 1 g, water 0.7 g",−
same,Free Terpene,"Tube 9: SAF 1 g, water 0.87 g",−
same,Free Terpene,"Tube 10: SAF 1 g, water 1.05 g",−
same,Free Terpene,"Tube 11: SAF 1 g, water 1.39 g",−
same,Flow,"Tube 7: SAF 1 g, water 0.52 g",Sl
same,Flow,"Tube 8: SAF 1 g, water 0.7 g",Mod
same,Flow,"Tube 9: SAF 1 g, water 0.87 g",High
same,Flow,"Tube 10: SAF 1 g, water 1.05 g",High
same,Flow,"Tube 11: SAF 1 g, water 1.39 g",High
